In brackets after ≈: the same amount, converted by molar mass. One block for each molecule: values may come before it.
Columns and labels:
Test in all cases: ≥ marks a high value that may be exact or a test limit, other limits are often not marked, values filed in µg/mL are converted to µM
[1] = system: Staphylococcus aureus ATCC 25923
[2] = system: Escherichia coli ATCC 25922
[3] = system: Pseudomonas aeruginosa CMCCB 10104
[4] = system: Candida albicans ATCC 2002
[5] = system: Staphylococcus aureus NCTC 12493
[6] = system: Staphylococcus aureus NCTC 10788
[7] = system: Candida albicans NCYC 1467
[8] = system: Escherichia coli NCTC 10418
[9] = system: Pseudomonas aeruginosa ATCC 27853
Staphylococcus aureus = system: Staphylococcus aureus
Escherichia coli JM109 = system: Escherichia coli JM109
[10] = system: Staphylococcus aureus ATCC 6538P
Escherichia coli B = system: Escherichia coli B
[11] = system: Candida albicans F7-39/IDE99
Pseudomonas aeruginosa = system: Pseudomonas aeruginosa
Bacillus subtilis 168 = system: Bacillus subtilis 168
[12] = system: Staphylococcus aureus ATCC 29213
[13] = system: Salmonella enterica subsp. enterica serovar Typhimurium C77-31
[14] = system: Salmonella enterica subsp. enterica serovar Pullorum C79-13
[15] = system: Enterococcus faecalis ATCC 29212
[16] = system: Staphylococcus epidermidis ATCC 12228
Escherichia coli W160-37 = system: Escherichia coli W160-37
Escherichia coli UB1005 = system: Escherichia coli UB1005
Escherichia coli = system: Escherichia coli
Acinetobacter baumannii = system: Acinetobacter baumannii
Bacillus subtilis = system: Bacillus subtilis
[17] = system: Salmonella enterica serovar Typhimurium
Candida albicans = system: Candida albicans
[18] = system: Staphylococcus epidermidis
[19] = system: Pseudomonas aeruginosa H103

Compound: CC[C@H](C)[C@H](NC(=O)[C@H](Cc1ccccc1)NC(=O)[C@@H](N)CCCN=C(N)N)C(=O)N[C@@H](Cc1ccc(O)cc1)C(=O)N[C@@H](CCSC)C(=O)N[C@@H](CCCCN)C(=O)NCC(=O)N[C@@H](Cc1ccccc1)C(=O)NCC(=O)N[C@@H](CCCCN)C(=O)N1CCC[C@H]1C(=O)N[C@@H](CCCN=C(N)N)C(=O)N[C@@H](Cc1ccccc1)C(=O)NCC(=O)N[C@@H](CCCCN)C(=O)N[C@@H](CCCN=C(N)N)C(=O)O [RFIYMKGFGKPRFGKR]
MIC [1]: 12.6 µM (≈ 25 µg/mL)
MIC [2]: 50.3 µM (≈ 100 µg/mL)
MIC [3]: 12.6 µM (≈ 25 µg/mL)
MIC [4]: 25.1 µM (≈ 50 µg/mL)

Compound: CC[C@H](C)[C@H](NC(=O)[C@H](CC(C)C)NC(=O)[C@H](CCC(N)=O)NC(=O)[C@@H](NC(=O)[C@H](C)NC(=O)CNC(=O)[C@H](CCCCN)NC(=O)[C@H](CC(C)C)NC(=O)[C@H](CC(C)C)NC(=O)[C@@H](NC(=O)[C@H](Cc1ccccc1)NC(=O)[C@@H](NC(=O)CN)C(C)C)[C@@H](C)O)[C@@H](C)O)C(=O)NCC(=O)N[C@@H](CCCCN)C(=O)N[C@H](C(=O)N[C@@H](CC(C)C)C(=O)NCC(=O)N[C@@H](CCCCN)C(=O)N[C@@H](CCC(=O)O)C(=O)N[C@@H](CC(C)C)C(=O)NCC(=O)N[C@@H](CCCCN)C(=O)N[C@H](C(=O)NCC(=O)N[C@@H](CC(C)C)C(=O)N[C@@H](CCC(=O)O)C(=O)N[C@@H](CC(C)C)C(=O)N[C@@H](CCSC)C(=O)N[C@@H](C)C(=O)N[C@H]1CSSC[C@@H](C(=O)O)NC(=O)[C@H](CCC(N)=O)NC(=O)[C@H](CC(N)=O)NC(=O)[C@H]([C@@H](C)O)NC(=O)[C@H]([C@@H](C)CC)NC(=O)[C@H](CCCCN)NC1=O)[C@@H](C)O)[C@@H](C)O [GVFTLLKGATQLIGKTLGKELGKTGLELMACKITNQC]
MIC [1]: 2.04 µM (≈ 7.9 µg/mL)
MIC [2]: 2.04 µM (≈ 7.9 µg/mL)
MIC [3]: 2.04 µM (≈ 7.9 µg/mL)
MIC [4]: 4.07 µM (≈ 15.8 µg/mL)

Compound: CC[C@H](C)[C@H](NC(=O)[C@H](C)NC(=O)[C@H](CC(C)C)NC(=O)[C@H](CS)NC(=O)[C@@H](N)Cc1cnc[nH]1)C(=O)NCC(=O)N[C@@H](CCCN=C(N)N)C(=O)N[C@@H](CCCN=C(N)N)C(N)=O [HCLAIGRR]
MIC (Staphylococcus aureus): > 69.2 µM
MIC (Escherichia coli JM109): 25.9 µM
MIC [10]: 9.73 µM

Compound: NCCCC[C@H](NC(=O)CNC(=O)[C@H](CC(N)=O)NC(=O)[C@H](CCC(=O)O)NC(=O)[C@H](Cc1c[nH]c2ccccc12)NC(=O)[C@H](CCCCN)NC(=O)[C@H](Cc1c[nH]c2ccccc12)NC(=O)[C@H](CCCCN)NC(=O)[C@@H](N)Cc1c[nH]c2ccccc12)C(=O)N[C@@H](Cc1c[nH]c2ccccc12)C(=O)N[C@@H](CCCCN)C(=O)N[C@@H](Cc1c[nH]c2ccccc12)C(=O)N[C@@H](CCC(N)=O)C(=O)N[C@@H](Cc1c[nH]c2ccccc12)C(=O)O [WKWKWENGKWKWQW]
MIC [2]: 32 µM (≈ 66.4 µg/mL)
MIC [12]: > 128 µM
MIC [13]: ≥ 64 µM
MIC [14]: 16 µM (≈ 33.2 µg/mL)
MIC [15]: > 128 µM
MIC [16]: > 128 µM

Compound: CC[C@H](C)[C@H](N)C(=O)N[C@H](C(=O)N[C@@H](CO)C(=O)N[C@H](C(=O)N[C@H](C(=O)NCC(=O)N[C@@H](CCCCN)C(=O)N[C@@H](CC(C)C)C(=O)N[C@H](C(=O)N[C@@H](CCCCN)C(=O)N[C@@H](Cc1c[nH]c2ccccc12)C(=O)N[C@H](C(=O)N[C@H](C(=O)N[C@@H](CC(=O)O)C(=O)N[C@H](C(=O)N[C@H](C(=O)O)C(C)C)[C@@H](C)O)[C@@H](C)CC)[C@@H](C)CC)C(C)C)[C@@H](C)CC)[C@@H](C)O)[C@@H](C)CC [IISTIGKLVKWIIDTV]
MIC (Staphylococcus aureus): 18.8 µM (≈ 33.8 µg/mL)
MIC (Escherichia coli W160-37): 8 µM (≈ 14.4 µg/mL)

Compound: CC[C@H](C)[C@H](N)C(=O)N[C@@H](CC(C)C)C(=O)N1CCC[C@H]1C(=O)N[C@@H](Cc1c[nH]c2ccccc12)C(=O)N[C@@H](CCCCN)C(=O)N[C@@H](Cc1c[nH]c2ccccc12)C(=O)N1CCC[C@H]1C(=O)N[C@@H](Cc1ccccc1)C(=O)N[C@@H](Cc1ccccc1)C(=O)N1CCC[C@H]1C(=O)N[C@@H](Cc1c[nH]c2ccccc12)C(=O)N[C@@H](CCCN=C(N)N)C(=O)N[C@@H](CCCN=C(N)N)C(N)=O [ILPWKWPFFPWRR]
MIC (Escherichia coli JM109): 2 µM (≈ 3.66 µg/mL)

The next lines start with the values.

MIC [5]: 2 µM (≈ 3.95 µg/mL)
MIC [6]: 2 µM (≈ 3.95 µg/mL)
MIC [7]: 2 µM (≈ 3.95 µg/mL)
MIC [8]: 8 µM (≈ 15.8 µg/mL)
MIC [9]: 32 µM (≈ 63.2 µg/mL)
Compound: CC[C@H](C)[C@H](NC(=O)CNC(=O)[C@@H](NC(=O)[C@H](C)NC(=O)[C@@H](NC(=O)[C@H](CCCCN)NC(=O)[C@@H]1CCCN1C(=O)[C@@H](NC(=O)[C@H](CC(C)C)NC(=O)[C@H](CO)NC(=O)[C@H](CC(C)C)NC(=O)[C@@H](N)Cc1ccccc1)[C@@H](C)CC)[C@@H](C)CC)[C@@H](C)O)C(=O)N[C@@H](C)C(=O)N[C@@H](C)C(=O)N[C@@H](CC(C)C)C(=O)N[C@@H](C)C(=O)N[C@@H](CCCCN)C(=O)N[C@@H](Cc1cnc[nH]1)C(=O)N[C@@H](CC(C)C)C(N)=O [FLSLIPKIATGIAALAKHL]

MIC (Staphylococcus aureus): 5.5 µM (≈ 7.89 µg/mL)
MIC (Escherichia coli B): 1.8 µM (≈ 2.58 µg/mL)
MIC [11]: 8.7 µM (≈ 12.5 µg/mL)
MIC (Pseudomonas aeruginosa): 31.7 µM (≈ 45.5 µg/mL)
MIC (Bacillus subtilis 168): 0.9 µM (≈ 1.29 µg/mL)
Compound: CC[C@H](C)[C@H](NC(=O)[C@H](Cc1cnc[nH]1)NC(=O)[C@H](CCCCN)NC(=O)[C@H](CC(C)C)NC(=O)[C@H](CC(C)C)NC(=O)[C@H](CO)NC(=O)[C@H](CC(C)C)NC(=O)[C@H](Cc1c[nH]c2ccccc12)NC(=O)[C@H](CCCCN)NC(=O)CN)C(=O)N[C@@H](CC(C)C)C(=O)N[C@@H](CCCCN)C(N)=O [GKWLSLLKHILK]

MIC [1]: 4 µM (≈ 7.02 µg/mL)
MIC (Staphylococcus aureus): 4 µM (≈ 7.02 µg/mL)
MIC [2]: 4 µM (≈ 7.02 µg/mL)
MIC [12]: 2 µM (≈ 3.51 µg/mL)
MIC (Pseudomonas aeruginosa): 32 µM (≈ 56.2 µg/mL)
MIC [13]: 4 µM (≈ 7.02 µg/mL)
MIC (Escherichia coli UB1005): 2 µM (≈ 3.51 µg/mL)
MIC [16]: 4 µM (≈ 7.02 µg/mL)
MIC (Escherichia coli): 4 µM (≈ 7.02 µg/mL)
MIC (Acinetobacter baumannii): 8 µM (≈ 14 µg/mL)
Compound: CC(C)[C@H](NC(=O)[C@H](CCCN=C(N)N)NC(=O)[C@H](Cc1c[nH]c2ccccc12)NC(=O)[C@H](CCCN=C(N)N)NC(=O)[C@@H](NC(=O)[C@H](CCCCN)NC(=O)[C@H](Cc1c[nH]c2ccccc12)NC(=O)[C@H](CCCN=C(N)N)NC(=O)[C@@H](NC(=O)[C@H](CCCN=C(N)N)NC(=O)[C@@H](N)Cc1c[nH]c2ccccc12)C(C)C)[C@@H](C)O)C(=O)N[C@@H](CCCCN)C(N)=O [WRVRWKTRWRVK]

MIC (Bacillus subtilis): 0.6 µM (≈ 0.905 µg/mL)
MIC (Staphylococcus aureus): 4.7 µM (≈ 7.09 µg/mL)
MIC [11]: 5.3 µM (≈ 7.99 µg/mL)
MIC (Pseudomonas aeruginosa): 50 µM (≈ 75.4 µg/mL)
MIC (Escherichia coli): 1.6 µM (≈ 2.41 µg/mL)
Compound: CC[C@H](C)[C@H](NC(=O)[C@H](Cc1cnc[nH]1)NC(=O)[C@H](CCCCN)NC(=O)[C@H](CC(C)C)NC(=O)[C@H](CC(C)C)NC(=O)[C@H](CO)NC(=O)[C@H](Cc1c[nH]c2ccccc12)NC(=O)[C@H](Cc1c[nH]c2ccccc12)NC(=O)[C@H](CCCCN)NC(=O)CN)C(=O)N[C@@H](CC(C)C)C(=O)N[C@@H](CCCCN)C(N)=O [GKWWSLLKHILK]

MIC [1]: 13.8 µM (≈ 16 µg/mL)
MIC [17]: 26.8 µM (≈ 31 µg/mL)
MIC (Candida albicans): 13.8 µM (≈ 16 µg/mL)
MIC [18]: 3.46 µM (≈ 4 µg/mL)
MIC (Escherichia coli UB1005): 6.92 µM (≈ 7.99 µg/mL)
MIC [15]: 13.8 µM (≈ 16 µg/mL)
MIC [19]: 13.8 µM (≈ 16 µg/mL)
Compound: CC[C@H](C)[C@H](NC(=O)[C@@H](NC(=O)[C@H](Cc1c[nH]c2ccccc12)NC(=O)[C@@H](NC(=O)[C@@H](N)CCCCN)[C@@H](C)CC)C(C)C)C(=O)N[C@@H](CCCN=C(N)N)C(=O)N[C@@H](Cc1c[nH]c2ccccc12)C(=O)N[C@@H](CCCN=C(N)N)C(N)=O [KIWVIRWR]

— DBAASP
